The text below walks through data of publication PMC2212779 (The Journal of Experimental Medicine, 2005).

One assay addresses H-2K^b (Mus musculus, UniProt P01901). As to the kind of experiment: biochemical. Format: binding.
A further assay has as its target H-2D^b (Mus musculus, UniProt P01899). The conditions noted are these: read-out: average IC50 of the radiolabeled standard peptide; cited from earlier work.

Ends that are not written are not given here.

H-2K^b, sequence (P01901 22-369): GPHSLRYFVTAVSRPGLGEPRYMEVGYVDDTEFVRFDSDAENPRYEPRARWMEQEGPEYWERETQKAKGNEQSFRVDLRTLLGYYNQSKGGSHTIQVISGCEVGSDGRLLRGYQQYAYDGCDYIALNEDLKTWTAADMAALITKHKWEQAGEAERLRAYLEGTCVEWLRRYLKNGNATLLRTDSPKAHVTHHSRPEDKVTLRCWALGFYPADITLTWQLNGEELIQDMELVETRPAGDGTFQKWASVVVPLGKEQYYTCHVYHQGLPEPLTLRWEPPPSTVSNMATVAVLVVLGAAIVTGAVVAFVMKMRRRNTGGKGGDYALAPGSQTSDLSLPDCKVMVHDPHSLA
H-2K^b, sequence (P61769 21-119, further chain): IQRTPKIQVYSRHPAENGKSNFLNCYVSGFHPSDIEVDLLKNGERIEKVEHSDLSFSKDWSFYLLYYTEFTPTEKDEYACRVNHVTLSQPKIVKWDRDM
H-2D^b, sequence (P01899 25-362): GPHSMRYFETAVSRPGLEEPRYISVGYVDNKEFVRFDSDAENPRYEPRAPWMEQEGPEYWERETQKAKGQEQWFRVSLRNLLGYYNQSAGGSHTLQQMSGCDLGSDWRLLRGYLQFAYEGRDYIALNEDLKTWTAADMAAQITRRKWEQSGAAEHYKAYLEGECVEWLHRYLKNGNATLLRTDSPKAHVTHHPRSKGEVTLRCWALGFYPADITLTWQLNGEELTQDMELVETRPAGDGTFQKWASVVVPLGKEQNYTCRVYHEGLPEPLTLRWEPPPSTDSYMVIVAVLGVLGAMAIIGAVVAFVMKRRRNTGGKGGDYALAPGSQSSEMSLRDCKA
H-2D^b, sequence (P61769 21-119, further chain): as the sequence (P61769 21-119, further chain) above

As for TSYKFESV [B8R20-27], on H-2K^b, the IC50 (as a rule, the concentration needed to halve the response being measured) came out at 0.19 nM.
On the same count and under the same terms, the figure for ISLKNYGI [ISLKNYGI] is 16 nM.
As for SGPSNTYPEI, on H-2D^b, the half-maximal inhibitory concentration (IC50) was 4.4 nM.
In turn, WQTMYTNV [WQTMYTNV] displayed an IC50 against H-2K^b of 6.6 nM.
Same read-out and setting: to KVEEYCTGL [KVEEYCTGL] belongs 129 nM.
On the same count and under the same terms, the figure for LAVLFINSI [LAVLFINSI] is 28 nM.
